From ChEMBL document CHEMBL5584264 (Bioorg Med Chem Lett, 2024)
≈ marks a conversion by molar mass, not a printed value.

Tests used:
[1] = molecular target: Sigma non-opioid intracellular receptor 1 (Homo sapiens, UniProt Q99720); experiment: Displacement of [3H]DTG from sigma-1 receptor (unknown origin) assessed as inhibition constant
[2] = system: RAW264.7; experiment: Antiinflammatory activity against LPS-induced mouse RAW264.7 cells assessed as cell viability at 10 uM by celltiter-blue cell viability assay; format: functional; details: read-out: Activity
[3] = system: RAW264.7; experiment: Antiinflammatory activity against LPS-induced mouse RAW264.7 cells assessed as reduction in nitrite level at 10 uM preincubated with compound for 1 hr followed by LPS-induction and measured after 24 hrs by Fluorometric Assay relative to control; format: functional; design: scale not given: the % may be the effect or the level left; details: time 25 hrs
[4] = system: RAW264.7; experiment: Antiinflammatory activity against LPS-induced mouse RAW264.7 cells assessed as reduction in TNF-alpha level at 1 uM preincubated with compound for 1 hr followed by LPS-induction and measured after 24 hrs by ELISA analysis relative to control; format: functional; design: scale not given: the % may be the effect or the level left; details: time 25 hrs
[5] = system: RAW264.7; experiment: Antiinflammatory activity against LPS-induced mouse RAW264.7 cells assessed as cell viability at 30 uM by celltiter-blue cell viability assay; format: functional; details: read-out: Activity
[6] = system: RAW264.7; experiment: Antiinflammatory activity against LPS-induced mouse RAW264.7 cells assessed as reduction in nitrite level at 1 uM preincubated with compound for 1 hr followed by LPS-induction and measured after 24 hrs by Fluorometric Assay relative to control; format: functional; design: scale not given: the % may be the effect or the level left; details: time 25 hrs
[7] = system: RAW264.7; experiment: Antiinflammatory activity against LPS-induced mouse RAW264.7 cells assessed as reduction in nitrite level preincubated with compound for 1 hr followed by LPS-induction and measured after 24 hrs by Fluorometric Assay; format: functional, cell-based; details: dose 1-30 µM, time 25.0 hrs
[8] = system: RAW264.7; experiment: Antiinflammatory activity against LPS-induced mouse RAW264.7 cells assessed as reduction in nitrite level at 30 uM preincubated with compound for 1 hr followed by LPS-induction and measured after 24 hrs by Fluorometric Assay relative to control; format: functional; design: scale not given: the % may be the effect or the level left; details: time 25 hrs
[9] = system: RAW264.7; experiment: Antiinflammatory activity against LPS-induced mouse RAW264.7 cells assessed as cell viability at 1 uM by celltiter-blue cell viability assay; format: functional; details: read-out: Activity
[10] = system: RAW264.7; experiment: Antiinflammatory activity against LPS-induced mouse RAW264.7 cells assessed as reduction in IL-6 level at 30 uM preincubated with compound for 1 hr followed by LPS-induction and measured after 24 hrs by ELISA analysis relative to control; format: functional; design: scale not given: the % may be the effect or the level left; details: time 25 hrs
[11] = system: RAW264.7; experiment: Antiinflammatory activity against LPS-induced mouse RAW264.7 cells assessed as reduction in TNF-alpha level at 10 uM preincubated with compound for 1 hr followed by LPS-induction and measured after 24 hrs by ELISA analysis relative to control; format: functional; design: scale not given: the % may be the effect or the level left; details: time 25 hrs
[12] = system: RAW264.7; experiment: Antiinflammatory activity against LPS-induced mouse RAW264.7 cells assessed as reduction in IL-6 level at 10 uM preincubated with compound for 1 hr followed by LPS-induction and measured after 24 hrs by ELISA analysis relative to control; format: functional; design: scale not given: the % may be the effect or the level left; details: time 25 hrs
[13] = molecular target: 5-hydroxytryptamine receptor 2A (Homo sapiens, UniProt P28223); experiment: Displacement of [3H]DTG from 5HT2A receptor (unknown origin) assessed as inhibition constant
Chain of 5-hydroxytryptamine receptor 2A (P28223 whole entry): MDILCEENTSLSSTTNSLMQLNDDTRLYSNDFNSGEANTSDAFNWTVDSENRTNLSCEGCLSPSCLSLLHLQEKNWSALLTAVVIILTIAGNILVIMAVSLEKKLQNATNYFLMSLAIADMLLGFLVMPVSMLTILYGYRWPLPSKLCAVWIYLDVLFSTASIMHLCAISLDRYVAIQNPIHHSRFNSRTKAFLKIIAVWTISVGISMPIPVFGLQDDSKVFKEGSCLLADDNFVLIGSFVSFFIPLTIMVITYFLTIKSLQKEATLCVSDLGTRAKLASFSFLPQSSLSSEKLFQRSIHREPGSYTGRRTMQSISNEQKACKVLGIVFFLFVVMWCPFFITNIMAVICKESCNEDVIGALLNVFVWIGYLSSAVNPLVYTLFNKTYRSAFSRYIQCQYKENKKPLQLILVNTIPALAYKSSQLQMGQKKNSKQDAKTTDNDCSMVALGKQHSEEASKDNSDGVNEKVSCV

[14] = molecular target: Sigma intracellular receptor 2 (Homo sapiens, UniProt Q5BJF2); experiment: Displacement of [3H]DTG from sigma-2 receptor (unknown origin) assessed as inhibition constant
Chain of Sigma intracellular receptor 2 (Q5BJF2 whole entry): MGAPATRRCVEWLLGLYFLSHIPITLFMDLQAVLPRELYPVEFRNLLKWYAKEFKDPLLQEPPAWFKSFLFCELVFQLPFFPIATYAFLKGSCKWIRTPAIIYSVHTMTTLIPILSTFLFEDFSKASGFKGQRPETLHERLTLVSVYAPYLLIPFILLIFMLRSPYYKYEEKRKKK

[15] = system: RAW264.7; experiment: Antiinflammatory activity against LPS-induced mouse RAW264.7 cells assessed as reduction in TNF-alpha level at 30 uM preincubated with compound for 1 hr followed by LPS-induction and measured after 24 hrs by ELISA analysis relative to control; format: functional; design: scale not given: the % may be the effect or the level left; details: time 25 hrs
[16] = system: RAW264.7; experiment: Antiinflammatory activity against LPS-induced mouse RAW264.7 cells assessed as reduction in IL-6 level at 1 uM preincubated with compound for 1 hr followed by LPS-induction and measured after 24 hrs by ELISA analysis relative to control; format: functional; design: scale not given: the % may be the effect or the level left; details: time 25 hrs
[17] = molecular target: Protein cereblon/DNA damage-binding protein 1 (Homo sapiens) (UniProt Q96SW2+Q16531); experiment: Displacement of Cy5-tagged thalidomide-like probe from human CRBN/DDB1 complex by fluorescence polarization based CRBN binding assay; format: protein assay
Chain of Protein cereblon/DNA damage-binding protein 1 (Homo sapiens) (Q16531 2-1140 partner limits assumed): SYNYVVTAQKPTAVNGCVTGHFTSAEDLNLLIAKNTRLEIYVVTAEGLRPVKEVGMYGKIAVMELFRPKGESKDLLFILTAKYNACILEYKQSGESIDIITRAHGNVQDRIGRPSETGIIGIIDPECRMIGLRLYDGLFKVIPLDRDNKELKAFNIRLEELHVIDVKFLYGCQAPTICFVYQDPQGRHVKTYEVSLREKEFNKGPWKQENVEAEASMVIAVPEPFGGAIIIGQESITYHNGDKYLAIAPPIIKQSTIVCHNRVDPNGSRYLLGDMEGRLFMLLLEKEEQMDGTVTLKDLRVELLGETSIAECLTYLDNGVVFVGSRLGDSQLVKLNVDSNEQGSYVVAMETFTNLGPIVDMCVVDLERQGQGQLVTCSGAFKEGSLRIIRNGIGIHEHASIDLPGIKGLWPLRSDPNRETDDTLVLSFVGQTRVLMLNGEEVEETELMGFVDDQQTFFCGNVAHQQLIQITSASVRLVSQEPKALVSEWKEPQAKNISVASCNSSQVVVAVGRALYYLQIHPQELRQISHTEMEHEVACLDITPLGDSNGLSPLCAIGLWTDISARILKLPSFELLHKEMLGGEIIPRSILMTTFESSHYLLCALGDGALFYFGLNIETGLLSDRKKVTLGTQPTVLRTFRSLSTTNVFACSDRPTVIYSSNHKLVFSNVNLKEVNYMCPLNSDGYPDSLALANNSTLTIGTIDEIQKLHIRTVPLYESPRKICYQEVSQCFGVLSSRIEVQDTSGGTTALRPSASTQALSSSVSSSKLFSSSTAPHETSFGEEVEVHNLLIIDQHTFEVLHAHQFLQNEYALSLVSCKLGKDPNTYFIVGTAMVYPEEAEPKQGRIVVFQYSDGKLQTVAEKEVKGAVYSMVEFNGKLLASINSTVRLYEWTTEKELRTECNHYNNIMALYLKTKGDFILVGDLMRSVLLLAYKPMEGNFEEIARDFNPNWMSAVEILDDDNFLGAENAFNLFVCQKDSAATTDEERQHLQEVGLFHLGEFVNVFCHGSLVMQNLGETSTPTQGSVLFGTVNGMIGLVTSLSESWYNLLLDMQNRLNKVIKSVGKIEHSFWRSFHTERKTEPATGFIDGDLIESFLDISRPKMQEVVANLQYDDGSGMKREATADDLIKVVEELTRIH
Chain of Protein cereblon/DNA damage-binding protein 1 (Homo sapiens) (Q96SW2 whole entry): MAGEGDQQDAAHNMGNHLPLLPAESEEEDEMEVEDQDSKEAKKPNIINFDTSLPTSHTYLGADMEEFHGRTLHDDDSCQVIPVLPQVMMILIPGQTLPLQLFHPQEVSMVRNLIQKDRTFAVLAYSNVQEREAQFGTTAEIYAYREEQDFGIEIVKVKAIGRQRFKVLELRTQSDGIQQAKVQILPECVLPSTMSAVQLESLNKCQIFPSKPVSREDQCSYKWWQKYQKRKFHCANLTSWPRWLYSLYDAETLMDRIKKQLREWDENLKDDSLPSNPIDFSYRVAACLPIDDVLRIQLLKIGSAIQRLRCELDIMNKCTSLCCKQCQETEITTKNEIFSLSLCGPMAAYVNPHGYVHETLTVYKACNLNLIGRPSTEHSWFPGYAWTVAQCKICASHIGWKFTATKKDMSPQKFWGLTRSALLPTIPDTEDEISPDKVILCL

[18] = Solubility of compound in PBS at pH 7.4 by LC/MS analysis; format: physicochemical
[19] = system: RAW264.7; experiment: Antiinflammatory activity against LPS-induced mouse RAW264.7 cells assessed as reduction in IL-6 level preincubated with compound for 1 hr followed by LPS-induction and measured after 24 hrs by ELISA analysis; format: functional, cell-based; details: dose 1-30 µM, time 25.0 hrs
[20] = molecular target: Serotonin 3 (5-HT3) receptor; experiment: Displacement of [3H]DTG from 5HT3 receptor (unknown origin) assessed as inhibition constant; format: protein-complex assay, Homo sapiens
[21] = molecular target: 5-hydroxytryptamine receptor 2B (Homo sapiens, UniProt P41595); experiment: Displacement of [3H]DTG from 5HT2B receptor (unknown origin) assessed as inhibition constant
Chain of 5-hydroxytryptamine receptor 2B (P41595 whole entry): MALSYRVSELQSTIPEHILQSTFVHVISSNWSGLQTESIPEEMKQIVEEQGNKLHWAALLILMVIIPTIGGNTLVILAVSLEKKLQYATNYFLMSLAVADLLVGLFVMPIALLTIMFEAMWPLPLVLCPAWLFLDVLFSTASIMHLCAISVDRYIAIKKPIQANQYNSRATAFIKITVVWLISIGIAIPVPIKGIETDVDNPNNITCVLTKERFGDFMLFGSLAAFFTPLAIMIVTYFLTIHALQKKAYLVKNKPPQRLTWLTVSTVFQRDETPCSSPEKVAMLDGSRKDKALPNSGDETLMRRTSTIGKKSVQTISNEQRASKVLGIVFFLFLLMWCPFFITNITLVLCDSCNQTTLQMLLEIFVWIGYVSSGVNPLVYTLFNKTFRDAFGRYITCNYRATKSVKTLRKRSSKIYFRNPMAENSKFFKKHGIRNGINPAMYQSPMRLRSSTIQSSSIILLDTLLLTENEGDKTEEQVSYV

Chain of Sigma non-opioid intracellular receptor 1 (Q99720 whole entry): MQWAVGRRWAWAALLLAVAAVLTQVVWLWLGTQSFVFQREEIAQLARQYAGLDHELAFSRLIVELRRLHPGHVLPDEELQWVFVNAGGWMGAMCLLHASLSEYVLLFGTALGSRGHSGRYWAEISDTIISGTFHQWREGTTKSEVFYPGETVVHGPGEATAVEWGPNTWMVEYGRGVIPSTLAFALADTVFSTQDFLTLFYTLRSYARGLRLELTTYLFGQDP

Row | SMILES | viability at 10 µM [2] | Activity [3] | Activity [4] | viability at 30 µM [5] | Activity [6] | Activity [7] | Activity [8] | viability at 1 µM [9] | Activity [11] | Activity [15] | other results
1 | CC(=O)N1CCCC(N2C(=O)c3cccc(N)c3C2=O)C1 (stereo not given) | 103% | 88% | 95% | 101% | 95% | Dose-Dependent Effect | 81% | 102% | 86% | 86% | Ki [1]: 2.4 µM; Activity [10]: 89%; Activity [12]: 106%; Ki [13]: 5.2 µM; Ki [14]: 5.2 µM; Activity [16]: 111%; Activity [17]: Dose-Dependent Effect
2 | CCN1CCC[C@H](N2C(=O)c3cccc(N)c3C2=O)C1 | 96% | 120% | 114% | 94% | 115% |  | 114% | 100% | 111% | 109% | 
3 | Nc1cccc2c1C(=O)N(C1CCC(=O)NC1=O)C2=O (stereo not given) [POMALIDOMIDE] |  |  |  |  |  |  |  |  |  |  | solubility [18]: 85 µM (≈ 23.2 µg/mL)
4 | CCN1CCCC(N2C(=O)c3cccc(N)c3C2=O)C1 (racemic) | 99% | 101% | 115% | 97% | 101% |  | 90% | 101% | 112% | 102% | 
5 | Nc1cccc2c1C(=O)N([C@@H]1CCCNC1)C2=O | 103% | 87% |  | 114% |  | Dose-Dependent Effect | 68% | 100% | 95% | 91% | Activity [10]: 60%; Activity [12]: 72%; Activity [19]: Dose-Dependent Effect; Activity [16]: 108%
6 | CN1CCC[C@H](N2C(=O)c3cccc(N)c3C2=O)C1 | 111% |  |  |  |  | Dose-Dependent Effect |  | 110% |  | 106% | 
7 | Nc1cccc2c1C(=O)N([C@H]1CCCNC1)C2=O | 102% |  |  | 103% | 110% | Dose-Dependent Effect | 83% | 104% | 94% | 94% | Activity [10]: 94%; Activity [12]: 102%; Activity [19]: Dose-Dependent Effect
8 | CN1CCCC(N2C(=O)c3cccc(N)c3C2=O)C1 (racemic) | 95% | 105% | 111% |  |  |  |  |  | 116% |  | Activity [17]: Dose-Dependent Effect
9 | CC(C)N1CCCC(N2C(=O)c3cccc(N)c3C2=O)C1 (racemic) | 100% | 100% | 100% | 95% | 109% |  | 123% | 105% | 109% | 103% | 
10 | Nc1cccc2c1C(=O)N(C1CCCN(C(=O)C(F)(F)F)C1)C2=O (stereo not given) | 103% | 90% |  | 99% | 92% |  | 100% | 103% |  | 94% | 
11 | CS(=O)(=O)N1CCCC(N2C(=O)c3cccc(N)c3C2=O)C1 (stereo not given) | 103% | 103% | 98% | 103% | 92% |  | 95% | 103% | 99% | 96% | Ki [20]: > 10 µM; Ki [21]: > 10 µM; Activity [10]: 116%; Activity [12]: 112%; Ki [13]: > 10 µM; Activity [16]: 111%; Activity [17]: Dose-Dependent Effect
12 | CC(C)N1CCC[C@H](N2C(=O)c3cccc(N)c3C2=O)C1 | 100% | 100% | 107% | 102% | 112% |  | 108% | 100% | 115% | 115% | 
13 | Nc1cccc2c1C(=O)N(C1CCCN(C(=O)C3CC3)C1)C2=O (stereo not given) | 102% | 94% |  | 109% |  |  | 89% | 99% | 100% | 100% | 
14 | Nc1cccc2c1C(=O)N(C1CCCNC1)C2=O (racemic) | 99% | 91% |  | 105% | 97% | Dose-Dependent Effect | 83% | 100% |  | 104% | Ki [21]: 0.561 µM; Activity [10]: 82%; Activity [12]: 88%; Ki [14]: 2.2 µM; Activity [16]: 83%; Activity [17]: Dose-Dependent Effect
15 | CCN1CCC[C@@H](N2C(=O)c3cccc(N)c3C2=O)C1 | 104% | 93% | 92% | 102% | 93% | Dose-Dependent Effect | 80% | 106% | 97% | 96% | 
16 | CN1CCC[C@@H](N2C(=O)c3cccc(N)c3C2=O)C1 | 100% | 101% | 108% |  |  |  | 95% | 100% | 100% |  | 
17 | CC(C)N1CCC[C@@H](N2C(=O)c3cccc(N)c3C2=O)C1 | 99% | 99% | 106% | 90% | 126% |  | 153% | 96% | 110% | 114% | 
